Measured values published in US10286022B2, “Medicinal composition of extract of seed of emblica officinalis and method of preparing the same” (priority 2013, dated 2019).

Tests used:
Assay type in all cases: in vivo, rat
[1] = test system: Triton WR 1339 induced dyslipidemia in Albino rats (Sprague Dawley strain); assay: Screening of hypolipidemic activity, Triton WR 1339 induced dyslipidemia model (Example 18)
Protocol: (§1) Twenty four male Albino rats (Sprague Dawley strain) weighing approximate 250-300 gm were selected for the study. The animals were kept in the animal house maintained at temp 24±2° C., 65% relative humidity and 12 hr light/dark cycle. The rats were acclimatized for two weeks and during this period they had access to standard pellet diet and water ad libitum. After two weeks of acclimatization, all the rats were fasted overnight before injecting Triton WR 1339 (Tyloxapol) and administration of test extracts/standard. The animals were divided into four groups Following treatment was given to overnight fasted rats: • Group I: Normal control (vehicle only). • Group II: Triton WR 1339 (300 mg/kg, intraperitoneal). • Group III: Triton WR 1339 (300 mg/kg, intraperitoneal) followed by amla seed extract prepare as per example 1 (10 mg/kg, per oral). • Group IV: Triton WR 1339 (300 mg/kg, intraperitoneal) followed by Atorvastatin (10 mg/kg, per oral).
(§2) The animals were deprived of food for next 24 hours but had free access to water ad libitum. After 24 hour of drug treatment 2 ml blood samples were collected from the retro orbital plexus. The blood was allowed to clot and then centrifuged at 3000 rpm for 10 min and the serum was carefully drawn and collected into separate tubes. The serum was analyzed for total cholesterol, triglycerides, high density lipoproteins (HDL), low density lipoproteins (LDL) and very low density lipoproteins (VLDL) levels using auto-analyzer.

[2] = test system: Triton WR 1339 induced dyslipidemia in Albino rats (Sprague Dawley strain); assay: Hypolipidemic activity compared with other amla extracts, Triton WR 1339 model (Example 20)
Protocol: as §1, with “Forty eight male” for “Twenty four male”, “into eight groups.” for “into four groups”, “extract prepared” for “extract prepare”, “1 (2.5” for “1 (10”, “by amla extract prepared as per example 3 (40 mg/kg, per oral). • Group V: Triton WR 1339 (300 mg/kg, intraperitoneal) followed by amla extract prepared as per example 4 (40 mg/kg, per oral). • Group VI: Triton WR 1339 (300 mg/kg, intraperitoneal) followed by amla extract prepared as per example 5 (40 mg/kg, per oral). • Group VII: Triton WR 1339 (300 mg/kg, intraperitoneal) followed by amla extract prepared as per example 6 (40 mg/kg, per oral). • Group VIII: Triton WR 1339 (300 mg/kg, intraperitoneal) followed by atorvastatin” for “by Atorvastatin”
as §2

[3] = test system: Triton WR 1339 induced dyslipidemia in Albino rats (Sprague Dawley strain); assay: Single dosage study compared with other amla extracts, Triton WR 1339 model (Example 21)
Protocol: as §1, with “Forty eight male” for “Twenty four male”, “into eight groups.” for “into four groups”, “extract prepared” for “extract prepare”, “1 (2.5” for “1 (10”, “by amla extract prepared as per example 3 (2.5 mg/kg, per oral). • Group V: Triton WR 1339 (300 mg/kg, intraperitoneal) followed by amla extract prepared as per example 4 (2.5 mg/kg, per oral). • Group VI: Triton WR 1339 (300 mg/kg, intraperitoneal) followed by amla extract prepared as per example 5 (2.5 mg/kg, per oral). • Group VII: Triton WR 1339 (300 mg/kg, intraperitoneal) followed by amla extract prepared as per example 6 (2.5 mg/kg, per oral). • Group VIII: Triton WR 1339 (300 mg/kg, intraperitoneal) followed by atorvastatin” for “by Atorvastatin”
as §2

[4] = 24 h after Triton i.p. + 10 mg/kg p.o.

CC(C)c1c(C(=O)Nc2ccccc2)c(-c2ccccc2)c(-c2ccc(F)cc2)n1CC[C@@H](O)C[C@@H](O)CC(=O)O [Atorvastatin]
effect on cholesterol and triglyceride level ([1]; 10 mg/kg p.o.): effective in lowering the cholesterol as well as triglyceride level
HDL After [1, 4]: 32.37 mg/dL
LDL After [1, 4]: 77.61 mg/dL
TC After [1, 4]: 131.9 mg/dL
TG After [1, 4]: 109.67 mg/dL
VLDL After [1, 4]: 21.93 mg/dL
HDL Before ([1]; baseline, 10 mg/kg p.o. group): 29.13 mg/dL
LDL Before ([1]; baseline, 10 mg/kg p.o. group): 62.43 mg/dL
TC Before ([1]; baseline, 10 mg/kg p.o. group): 100.4 mg/dL
TG Before ([1]; baseline, 10 mg/kg p.o. group): 44.26 mg/dL
VLDL Before ([1]; baseline, 10 mg/kg p.o. group): 8.85 mg/dL
HDL After [2, 4]: 33.84 mg/dL
LDL After [2, 4]: 55.00 mg/dL
TC After [2, 4]: 132.58 mg/dL
TG After [2, 4]: 218.66 mg/dL
VLDL After [2, 4]: 43.73 mg/dL
HDL Before ([2]; baseline, 10 mg/kg p.o. group): 35.11 mg/dL
LDL Before ([2]; baseline, 10 mg/kg p.o. group): 52.43 mg/dL
TC Before ([2]; baseline, 10 mg/kg p.o. group): 97.33 mg/dL
TG Before ([2]; baseline, 10 mg/kg p.o. group): 48.99 mg/dL
VLDL Before ([2]; baseline, 10 mg/kg p.o. group): 9.79 mg/dL
effect on cholesterol and triglyceride level ([2]; other amla extracts 40 mg/kg vs seed extract 2.5 mg/kg, atorvastatin 10 mg/kg p.o.): effective in lowering the cholesterol as well as triglyceride levels
HDL After [3, 4]: 36.66 mg/dL
LDL After [3, 4]: 43.67 mg/dL
TC After [3, 4]: 122.54 mg/dL
TG After [3, 4]: 211.06 mg/dL
VLDL After [3, 4]: 42.21 mg/dL
HDL Before ([3]; baseline, 10 mg/kg p.o. group): 39.51 mg/dL
LDL Before ([3]; baseline, 10 mg/kg p.o. group): 51.00 mg/dL
TC Before ([3]; baseline, 10 mg/kg p.o. group): 99.83 mg/dL
TG Before ([3]; baseline, 10 mg/kg p.o. group): 46.59 mg/dL
VLDL Before ([3]; baseline, 10 mg/kg p.o. group): 9.31 mg/dL
effect on cholesterol and triglyceride level ([3]; extracts 2.5 mg/kg, atorvastatin 10 mg/kg p.o.): less effective when compared with the amla seed extract
